Measurements as given in patent US10806717B2, “Methods and compositions for improving cognitive function” (The Johns Hopkins University, priority 2013, dated 2020).

Assays:
[1] = system: MAM-treated rats; details: rat, in vivo; cited from earlier work
[2] = system: Memory-impaired aged rats; test: Water maze probe test after chronic brivaracetam; assay type: in vivo, rat; details: brivaracetam 2 mg/kg/day by osmotic mini-pump
Protocol: The radial arm maze experiments used acute administration of seletracetam (0-4 mg/kg), brivaracetam (0-4 mg/kg), or saline vehicle given by intraperitoneal injection (in a volume of 1 ml/kg) 30-40 min prior to test sessions. In the chronic treatment experiment, memory-impaired aged rats were implanted subcutaneously in the intrascapular region with osmotic mini-pumps (ALZET, Durect Corporation, Cupertino, Calif.) with brivaracetam (2 mg/kg/day) or saline vehicle starting two weeks prior to assessment in the water maze.
Rats were trained and tested in a novel water maze environment to assess the effect of drug treatment. The water maze used here was housed in a different building and was surrounded by curtains with a novel set of patterns relative to the maze used for initial assessment of cognitive status. The training protocol consisted of 6 trials per day for 2 days to locate a submerged escape platform. On each trial, a rat was released in the maze from one of four equally spaced starting positions around the perimeter of the pool. The starting position varied from trial to trial. […] The rat was then removed from the platform and placed in a holding cage for another 40 s before the next trial. Approximately 24 hr after the last training trial, a probe test in the absence of the escape platform was given to assess spatial memory.

[3] = system: Memory-impaired aged rats; test: Radial arm maze task with 2-hr delay, acute brivaracetam or seletracetam; assay type: in vivo, rat; details: acute i.p. 0.0625-4 mg/kg, 30-40 min before test; repeated measures ANOVA: brivaracetam p=0.039, seletracetam p=0.009
[4] = system: MAM-treated rats; details: cited from earlier work
[5] = system: aged-impaired (AI) rats; test: Radial Arm Maze task with one-hour delay, levetiracetam and/or valproate; assay type: in vivo, rat; details: valproate on its own
[6] = system: Memory-impaired aged rats; details: cited from earlier work

NC1=N[C@H](O)[C@H]2[C@H]3O[C@]4(O)O[C@@H]([C@@H](O)[C@@]2(N1)[C@@H]4O)[C@]3(O)CO [tetrodotoxin]
augmented amphetamine-induced locomotor behavior [1]: normalized | elevated DA neuron population activity [1]: completely reversed

CCC[C@@H]1CC(=O)N([C@@H](CC)C(N)=O)C1 [brivaracetam]
spatial bias for the target quadrant compared to the other quadrants ([2]; 14 days, n=3/group, t(2)=10.000, p=0.010): significant spatial bias | time in the target annulus compared to vehicle-treated rats ([2]; t(4)=3.109, p=0.036): significantly more time | time in the target quadrant compared to vehicle-treated rats ([2]; t(4)=3.881, p=0.018): significantly more time | number of errors in the retention phase after 2-hr delay [3]: significant effect as a function of dose

CC[C@@H](C(N)=O)N1C[C@H](C=C(F)F)CC1=O [seletracetam]
number of errors in the retention phase after 2-hr delay [3]: significant effect as a function of dose

C#Cc1ccc2c(c1)C(c1ccccc1F)=N[C@H](C)c1c(C(=O)OCC)ncn1-2 [SH-053-2′F—R—CH3]
number of spontaneously active DA neurons in the ventral tegmental area (VTA) ([4]; MAM rats, systemic or infused into ventral HPC, to levels of saline-treated rats): reduces | increased locomotor response to amphetamine ([4]; MAM-treated rats): reduced | cortical-evoked responses of HPC neurons ([4]; saline-treated and MAM-treated animals): diminished

CCCC(CCC)C(=O)O [valproate, 2-propylpentanoate]
effective in reducing the number of errors ([5]; 25 mg/kg or 50 mg/kg subcutaneous): not | effective in reducing the number of errors ([5]; 100 mg/kg subcutaneous): effective | treatment of cognitive impairment ([6]; 50 mg/kg/day, chronic subcutaneous administration): not effective | performance in a memory test ([6]; 100 mg/kg/day, chronic subcutaneous administration): significantly improved | blood total valproate level ([6]; rat, in vivo): 10 μg/ml plasma
